Patent EP1205473A1, “VESAMICOL PIPERAZINE DERIVATIVES AND DRUGS CONTAINING THE SAME” (DAIICHI RADIOISOTOPE LABORATORIES, LTD., priority 1999, dated 2001)
Where two headings read alike, the source gives them in different places.

Columns and labels:
vesamicol receptors [1] = molecular target: T1, vesamicol receptors (Rattus norvegicus, UniProt Q62666); assay: Inhibition experiment: inhibition of binding of radioactive-iodine-labeled DRC140 to purified synaptic vesicle fractions; design: Synaptic vesicles were extracted and separated from the brain of a rat; from tissue; host or cells: rat brain without cerebellum: P2, crude synaptic vesicles, purified synaptic vesicles
T1 sequence (Q62666 1-530): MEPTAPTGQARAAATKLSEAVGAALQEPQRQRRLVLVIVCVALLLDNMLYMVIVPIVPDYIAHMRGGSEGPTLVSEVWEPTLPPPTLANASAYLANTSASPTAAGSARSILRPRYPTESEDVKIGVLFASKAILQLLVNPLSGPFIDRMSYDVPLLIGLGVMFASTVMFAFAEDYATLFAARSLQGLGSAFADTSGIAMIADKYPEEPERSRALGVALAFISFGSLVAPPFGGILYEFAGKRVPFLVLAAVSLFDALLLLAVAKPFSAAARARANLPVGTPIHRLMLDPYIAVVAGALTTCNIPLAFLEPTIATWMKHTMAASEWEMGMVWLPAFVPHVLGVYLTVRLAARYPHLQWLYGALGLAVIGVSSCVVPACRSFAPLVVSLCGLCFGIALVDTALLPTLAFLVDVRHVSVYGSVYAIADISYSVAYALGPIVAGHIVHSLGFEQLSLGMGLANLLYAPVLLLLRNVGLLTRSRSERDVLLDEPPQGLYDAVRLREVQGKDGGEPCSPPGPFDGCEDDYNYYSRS

vesamicol receptors [2] = molecular target: T1, vesamicol receptors; assay: Inhibition experiment: inhibition of binding of radioactive-iodine-labeled DRC140 to P2 fractions; design: Synaptic vesicles were extracted and separated from the brain of a rat; from tissue; host or cells: rat brain without cerebellum: P2, crude synaptic vesicles, purified synaptic vesicles
[3] = molecular target: T2, serotonin 5-HT1A receptors (Rattus norvegicus, UniProt P19327); assay: Receptor binding test: inhibition of tritium-labeled 8-hydroxy-DPAT binding to brain (hippocampus) homogenate; design: species or system Male Wistar rats
T2 construct: The hippocampi were immediately collected from the brains; from tissue; host or cells: rat hippocampus membranes
T2 sequence (P19327 1-422): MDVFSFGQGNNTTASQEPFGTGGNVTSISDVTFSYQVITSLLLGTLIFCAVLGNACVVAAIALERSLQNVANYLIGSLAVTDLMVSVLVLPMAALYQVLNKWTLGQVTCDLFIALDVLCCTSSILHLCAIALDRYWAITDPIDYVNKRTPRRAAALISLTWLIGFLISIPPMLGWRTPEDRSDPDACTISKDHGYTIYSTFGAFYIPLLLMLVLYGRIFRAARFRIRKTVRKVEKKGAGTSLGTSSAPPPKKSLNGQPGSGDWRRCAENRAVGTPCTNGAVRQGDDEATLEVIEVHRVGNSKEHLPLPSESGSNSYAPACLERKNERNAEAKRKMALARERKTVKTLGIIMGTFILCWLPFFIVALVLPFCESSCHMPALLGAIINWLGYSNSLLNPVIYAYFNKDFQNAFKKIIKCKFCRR
Description: (§1) Properties relating to binding of the vesamicol piperazine derivatives of the present invention to various receptors were examined as follows. Specifically, ligands which combine with each receptor were incubated together with homogenates prepared as follows.
To measure affinity to serotonin 5-HT1A receptors, tritium-labeled 8-hydroxy-DPAT was added to a brain homogenate prepared as follows. The vesamicol piperazine derivatives synthesized in the Examples were added at various concentrations, and the mixture was incubated for 30 minutes at 37°C. To measure affinity to serotonin 5-HT2A receptors, tritium-labeled ketanserin was added to a brain homogenate prepared as follows. The vesamicol piperazine derivatives synthesized in the Examples were added at various concentrations, and the mixture was incubated for 15 minutes at 37°C.
(§2) B (%) =((1 0 0 × [U])^(∩))/([ I C50 (])^(∩) (+ [U])^(∩)) [formula] wherein B(%) is the proportion of specific binding in the total binding, n indicates a Hill coefficient, and U is the concentration of unbound ligand.
Male Wistar rats were anesthetized with ether and were decapitated and the brains quickly extracted. The hippocampi were immediately collected from the brains. A 40-fold (vol/wt) amount of ice cooled 50 mM Tris-HCl buffer (pH 7.4) was added to the hippocampi. The mixture was homogenized using a potter-type homogenizer. The homogenate was centrifuged at 40,000 x g for 20 minutes. The supernatant liquid was removed and the resulting pellets were suspended in a 40-fold amount of Tris-HCl buffer solution. The suspension was centrifuged and the Tris buffer solution was again added to the pellets. This procedure was repeated twice. The product thus obtained was homogenized using a 40-fold amount of Tris-HCl buffer solution and incubated for 10 minutes at 37°C to remove endogenic 5-HT. The cell membrane was collected by centrifugation, washed twice, and suspended in a 10-fold amount of 50 mM Tris-HCl buffer solution (pH 7.4). The suspension thus obtained was stored at -80°C until the start of the binding experiment.

[4] = molecular target: serotonin 5-HT2A receptors (Rattus norvegicus, UniProt P14842); assay: Receptor binding test: inhibition of tritium-labeled ketanserin binding to brain homogenate; design: species or system Male Wistar rats
sigma receptors = molecular target: T3, sigma receptors (Cavia porcellus, UniProt Q60492); assay: Receptor binding test: inhibition of tritium-labeled (+) pentazocine binding to brain homogenate; design: species or system male guinea pig
T3 construct: The brain was immediately extracted; The cerebellum was removed from the brain; from tissue; host or cells: guinea pig brain without cerebellum, membrane pellet
Description: as §1
To measure affinity to sigma receptors, tritium-labeled (+) pentazocine was added to a brain homogenate prepared as follows. The vesamicol piperazine derivatives synthesized in the Examples were added at various concentrations, and the mixture was incubated for two hours at room temperature.
as §2
A male guinea pig was anesthetized with ether and was decapitated. The brain was immediately extracted. The cerebellum was removed from the brain. 10 mM Tris-sucrose buffer solution (0.32 M sucrose + 10 mM Tris-HCl (pH 7.4)) was added in the amount of 10 ml/g of the tissue. The mixture was homogenized by a potter-type homogenizer for 6-10 strokes. The homogenate was centrifuged at 1,000 x g for 10 minutes at 4°C and the supernatant liquid was collected. The resulting pellets were suspended in the Tris-sucrose buffer solution at the concentration of 2 ml/g, followed by centrifugation at 1,000 x g for 10 minutes at 4°C. The supernatant liquids obtained by the two centrifugation at 1,000 x g were combined and centrifuged at 31,000 x g for 15 minutes at 4°C. The resulting pellets were suspended in a 10 mM Tris-HCl buffer solution (pH 7.4) at a concentration of 3 ml/g of tissue and incubated for 30 minutes at 25°C. After incubation, the suspension was centrifuged at 31,000 x g for 15 minutes at 4°C. The pellets obtained were suspended in a 10 mM Tris-HCl buffer solution (pH 7.4) to make a final concentration of 1.53 ml/g of tissue. The suspension was homogenized by a potter-type homogenizer for 5 strokes. The homogenate was stored at -80°C until the start of the experiment.

adrenaline α1 receptors = assay: Receptor binding test: inhibition of tritium-labeled prazosin binding to brain homogenate; design: species or system Male Wistar rats; details: read-out: inhibitive concentration at 50% (IC50), Receptor Alpha-1; Table 9; high purity derivatives; unit inferred
vesamicol receptors [5] = molecular target: T1, vesamicol receptors; assay: Receptor binding test: inhibition of I-125 labeled 5-iodobenzo vesamicol binding to brain homogenate; design: from tissue; host or cells: rat brain without cerebellum, P2 fraction; species or system Male Wistar rats; details: Inhibitive concentration at 50% (IC50), Vesamicol receptor, Table 5; incubated three hours at 37°C; no unit printed in table (b19 gives nM for DRC140)
Description: as §1
To measure affinity of vesamicol receptors, I-125 labeled 5-iodobenzo vesamicol (synthesized and labeled according to Jung et al., J. Med. Chem. 33, 2065-2068, 1990) was added to a brain homogenate prepared as follows. The vesamicol piperazine derivatives synthesized in the Examples were added at various concentrations. The mixture was then incubated for three hours at 37°C.
as §2
Male Wistar rats were anesthetized with ether and were decapitated. The brains were immediately extracted. The cerebella were removed from the brains. 0.32 M sucrose (containing 4 mM HEPES (pH 7.4)) in an amount of five times the wet amount (weight) of this sample was added. The sample was homogenized by a potter-type homogenizer for 12 strokes while cooling with ice. 0.32 M sucrose in the same amount as the homogenate (total: 10 times the wet amount of the original sample) was added. The suspension thus obtained was centrifuged for 5 minutes at 1,000 x g. The precipitate was removed. The supernatant liquid was centrifuged at 9,200 x g for 15 minutes to separate the precipitate from the supernatant liquid. P2 fractions were suspended in a Tris-HCl buffer (pH 7.4) for binding experiments and stored at -80°C until the start of the binding experiment.

[6] = inhibitive concentration at 50% (IC50), Receptor Vesamicol
[7] = read-out: inhibitive concentration at 50% (IC50), Receptor Sigma-1

Sequence of serotonin 5-HT2A receptors (P14842 whole entry): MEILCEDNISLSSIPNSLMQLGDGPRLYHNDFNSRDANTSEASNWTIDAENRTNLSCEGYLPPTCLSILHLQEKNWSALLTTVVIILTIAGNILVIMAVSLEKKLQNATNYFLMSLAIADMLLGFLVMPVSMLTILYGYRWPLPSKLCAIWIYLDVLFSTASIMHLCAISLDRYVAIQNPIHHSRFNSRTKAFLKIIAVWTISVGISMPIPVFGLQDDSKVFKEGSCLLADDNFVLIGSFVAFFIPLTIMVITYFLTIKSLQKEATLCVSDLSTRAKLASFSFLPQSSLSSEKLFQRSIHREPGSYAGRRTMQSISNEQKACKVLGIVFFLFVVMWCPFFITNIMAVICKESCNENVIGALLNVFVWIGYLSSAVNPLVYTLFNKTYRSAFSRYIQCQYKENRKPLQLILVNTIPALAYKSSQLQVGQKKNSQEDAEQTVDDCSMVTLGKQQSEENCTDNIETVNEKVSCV
T3 sequence (Q60492 whole entry): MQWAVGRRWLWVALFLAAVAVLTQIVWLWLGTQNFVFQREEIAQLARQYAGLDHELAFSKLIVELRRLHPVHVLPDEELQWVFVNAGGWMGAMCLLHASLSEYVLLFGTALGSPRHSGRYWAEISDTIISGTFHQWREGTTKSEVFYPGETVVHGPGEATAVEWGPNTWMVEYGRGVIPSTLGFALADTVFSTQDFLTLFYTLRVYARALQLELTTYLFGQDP

SMILES | IC50 (vesamicol receptors [1]) [nM] | IC50 (vesamicol receptors [2]; IC50 (nM) Average ± S.D) [nM] | IC50 (vesamicol receptors [2]; [6]) [nM] | IC50 [3] [nM] | IC50 [4] [nM] | IC50 (sigma receptors) [nM] | IC50 (vesamicol receptors [2]; read-out: inhibitive concentration at 50% (IC50), Receptor Vesamicol) [nM] | IC50 ([3]; read-out: inhibitive concentration at 50% (IC50), Receptor 5-HT1A) [nM] | IC50 (adrenaline α1 receptors) [nM] | IC50 ([4]; read-out: inhibitive concentration at 50% (IC50), Receptor 5-HT2A) [nM] | IC50 (sigma receptors; [7]) [nM] | IC50 ([3]; read-out: Inhibitive concentration at 50% (IC50), Serotonin receptor 5-HT1A) [nM] | IC50 ([4]; read-out: Inhibitive concentration at 50% (IC50), Serotonin receptor 5-HT2A) [nM] | IC50 (sigma receptors; read-out: Inhibitive concentration at 50% (IC50), Sigma α-1 receptor) [nM] | IC50 (vesamicol receptors [5]) [nM]
OC1CCCCC1N1CCC(c2ccccc2)CC1 (single isomer, unassigned; (-)) [(-)-Vesamicol, 2-(4-phenyl-piperidino)cyclohexanol, reference compound] | 45.4 ± 3.59 | 58.2 ± 17.3 | 45.4 | > 5000 | > 5000 | 66.5 | – | – | – | – | – | – | – | – | –
O[C@@H]1Cc2cccc(I)c2C[C@H]1N1CCC(c2ccccc2)CC1 [(-)-IBVM, 5-iodobenzovesamicol, reference compound] | – | – | – | – | – | – | 0.32 | 119 | 2.61 | > 5000 | 174 | – | – | – | –
Cc1ccc(C)c(N2CCN([C@@H]3Cc4c(I)cccc4C[C@H]3O)CC2)c1 (single isomer, unassigned) [DRE350, (-)-trans-5-iodo-2-hydroxy-3-[4-[2,5-dimethylphenyl]piperazinyl]tetralin] | – | – | 0.83 | – | – | – | – | – | – | – | 5550 | 240 | > 20000 | 1500 | 0.58
